Where “and” joins values, the source holds several entries; their conditions need not be identical. Equal entries are not always repeated.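 Tested at 5 concentrations; 48 h exposure; 96-well plates; endpoints linearly interpolated, else capped at highest concentration. GI50 marks 50% less growth. TGI is the concentration that stops growth completely.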
Legend:
Test in all cases: DTP human tumour cell line panel, 48 h
786-0 renal = test system: 786-0 renal
NCI-H23 lung = test system: NCI-H23 lung
NCI-H522 lung = test system: NCI-H522 lung
SK-MEL-5 melanoma = test system: SK-MEL-5 melanoma
HOP-62 NSCLC = test system: HOP-62 NSCLC
HCT-15 colon = test system: HCT-15 colon
SK-MEL-28 melanoma = test system: SK-MEL-28 melanoma
DU-145 prostate = test system: DU-145 prostate
MDA-MB-435 = test system: MDA-MB-435
PC-3 prostate = test system: PC-3 prostate

CC1(c2ccc(Cl)cc2)C2C(=O)NC(=O)C1C(=O)NC2=O (stereo not drawn)
TGI (786-0 renal): > 100 µM
TGI (NCI-H23 lung): > 100 µM
TGI (NCI-H522 lung): > 100 µM
TGI (SK-MEL-5 melanoma): > 100 µM
TGI (HOP-62 NSCLC): > 100 µM
TGI (HCT-15 colon): > 100 µM
TGI (SK-MEL-28 melanoma): > 100 µM

CCc1nc(N)nc(N)c1-c1ccc(N2CCNCC2)cc1
TGI (786-0 renal): > 100 µM
TGI (NCI-H23 lung): > 97.3 µM
TGI (NCI-H522 lung): > 100 µM
TGI (SK-MEL-5 melanoma): 40.9 µM
TGI (DU-145 prostate): > 100 µM
TGI (MDA-MB-435): > 100 µM
TGI (HOP-62 NSCLC): > 100 µM
TGI (PC-3 prostate): > 100 µM
TGI (HCT-15 colon): > 100 µM
TGI (SK-MEL-28 melanoma): > 100 µM

CN1CCN(CCCOc2cccc3nc(Nc4ccc(Cl)c(C(F)(F)F)c4)ccc23)CC1
GI50 (786-0 renal): 1.5 µM
TGI (786-0 renal): 2.89 µM
GI50 (NCI-H23 lung): 1.78 µM
TGI (NCI-H23 lung): 3.42 µM
GI50 (NCI-H522 lung): 1.83 µM
TGI (NCI-H522 lung): 3.64 µM
GI50 (SK-MEL-5 melanoma): 1.69 µM
TGI (SK-MEL-5 melanoma): 3.13 µM
GI50 (DU-145 prostate): 1.81 µM
TGI (DU-145 prostate): 3.27 µM
GI50 (MDA-MB-435): 1.68 µM
TGI (MDA-MB-435): 3.23 µM
GI50 (HOP-62 NSCLC): 1.7 µM
TGI (HOP-62 NSCLC): 3.32 µM
GI50 (PC-3 prostate): 1.57 µM
TGI (PC-3 prostate): 3.03 µM
GI50 (HCT-15 colon): 1.22 µM
TGI (HCT-15 colon): 2.64 µM
GI50 (SK-MEL-28 melanoma): 1.39 µM
TGI (SK-MEL-28 melanoma): 2.81 µM

Brc1ccc2ns[s+]c2c1
TGI (786-0 renal): > 100 µM
TGI (NCI-H23 lung): > 100 µM
TGI (NCI-H522 lung): > 100 µM
TGI (SK-MEL-5 melanoma): > 46.7 µM
TGI (HOP-62 NSCLC): > 31.6 µM
TGI (HCT-15 colon): > 100 µM
TGI (SK-MEL-28 melanoma): > 100 µM

Cc1cc([N+](=O)[O-])c2ccccc2[n+]1[O-]
GI50 (786-0 renal): 0.158 µM and 0.258 µM
TGI (786-0 renal): 0.483 µM and 0.75 µM
GI50 (NCI-H23 lung): 0.504 µM and 0.59 µM
TGI (NCI-H23 lung): 2.51 µM and 3.75 µM
GI50 (NCI-H522 lung): 0.739 µM and 0.303 µM
TGI (NCI-H522 lung): 2.42 µM and 0.959 µM
GI50 (SK-MEL-5 melanoma): 0.171 µM and 0.157 µM
TGI (SK-MEL-5 melanoma): 0.334 µM and 0.355 µM
GI50 (DU-145 prostate): 0.073 µM and 0.0815 µM
TGI (DU-145 prostate): 0.325 µM and 0.564 µM
GI50 (MDA-MB-435): 0.336 µM and 0.286 µM
TGI (MDA-MB-435): 1.58 µM and 1.2 µM
GI50 (HOP-62 NSCLC): 0.188 µM and 0.25 µM
TGI (HOP-62 NSCLC): 0.835 µM and 1.13 µM
GI50 (PC-3 prostate): 0.165 µM and 0.149 µM
TGI (PC-3 prostate): 1.01 µM and 0.663 µM
GI50 (HCT-15 colon): 0.185 µM and 0.213 µM
TGI (HCT-15 colon): 0.797 µM and 1.03 µM
GI50 (SK-MEL-28 melanoma): 1.61 µM
TGI (SK-MEL-28 melanoma): 3.9 µM and 4.54 µM

Cc1cc(N2CCN(C)CC2)n2nc(-c3ccc(Cl)cc3)nc2n1
TGI (786-0 renal): > 100 µM
TGI (NCI-H23 lung): > 100 µM
TGI (NCI-H522 lung): > 100 µM
TGI (SK-MEL-5 melanoma): > 100 µM
TGI (DU-145 prostate): > 100 µM
TGI (MDA-MB-435): > 100 µM
TGI (HOP-62 NSCLC): > 100 µM
TGI (PC-3 prostate): > 100 µM
TGI (HCT-15 colon): > 100 µM
TGI (SK-MEL-28 melanoma): > 100 µM

CC[n+]1c(/C=C/C=C2\N(C)c3ccccc3C2(C)C)sc2ccccc21
GI50 (786-0 renal): 4.33 µM
TGI (786-0 renal): 8.38 µM
GI50 (NCI-H23 lung): 2.75 µM
TGI (NCI-H23 lung): 7.09 µM
GI50 (NCI-H522 lung): 3.8 µM
TGI (NCI-H522 lung): 9.03 µM
GI50 (SK-MEL-5 melanoma): 3.79 µM
TGI (SK-MEL-5 melanoma): 7.33 µM
GI50 (DU-145 prostate): 4.15 µM
TGI (DU-145 prostate): 7.76 µM
GI50 (MDA-MB-435): 3.98 µM
TGI (MDA-MB-435): 7.66 µM
GI50 (HOP-62 NSCLC): 4.47 µM
TGI (HOP-62 NSCLC): 9.31 µM
GI50 (PC-3 prostate): 4.29 µM
TGI (PC-3 prostate): 11.3 µM
GI50 (HCT-15 colon): 4.54 µM
TGI (HCT-15 colon): 9.67 µM
GI50 (SK-MEL-28 melanoma): 4.17 µM
TGI (SK-MEL-28 melanoma): 7.97 µM

CCCCCCC[CH2][Sn]1([CH2]CCCCCCC)[O]C(=O)c2cccnc2[O]1
GI50 (786-0 renal): > 100 µM
TGI (786-0 renal): > 100 µM
GI50 (NCI-H23 lung): > 100 µM
TGI (NCI-H23 lung): > 100 µM
GI50 (NCI-H522 lung): > 100 µM
TGI (NCI-H522 lung): > 100 µM
GI50 (SK-MEL-5 melanoma): > 100 µM
TGI (SK-MEL-5 melanoma): > 100 µM
GI50 (HCT-15 colon): > 100 µM
TGI (HCT-15 colon): > 100 µM
GI50 (SK-MEL-28 melanoma): > 100 µM
TGI (SK-MEL-28 melanoma): > 100 µM

c1ccc2c3c([nH]c2c1)C(c1ccc(C2NCCc4c2[nH]c2ccccc42)cc1)NCC3 (stereo not drawn)
GI50 (786-0 renal): 1.75 µM
TGI (786-0 renal): 3.38 µM
GI50 (NCI-H23 lung): 1.65 µM
TGI (NCI-H23 lung): 3.36 µM
GI50 (NCI-H522 lung): 0.414 µM
TGI (NCI-H522 lung): 1.49 µM
GI50 (SK-MEL-5 melanoma): 1.7 µM
TGI (SK-MEL-5 melanoma): 3.13 µM
GI50 (DU-145 prostate): 0.749 µM
TGI (DU-145 prostate): 2.13 µM
GI50 (MDA-MB-435): 0.359 µM
TGI (MDA-MB-435): 1.27 µM
GI50 (HOP-62 NSCLC): 1.31 µM
TGI (HOP-62 NSCLC): 2.8 µM
GI50 (PC-3 prostate): 1.27 µM
TGI (PC-3 prostate): 2.69 µM
GI50 (HCT-15 colon): 0.429 µM
TGI (HCT-15 colon): 1.78 µM
GI50 (SK-MEL-28 melanoma): 1.68 µM
TGI (SK-MEL-28 melanoma): 3.18 µM

O=S(=O)(c1cnccc1N1CCN(CCO)CC1)N1CCCC1
TGI (786-0 renal): > 100 µM
TGI (NCI-H23 lung): > 100 µM
TGI (NCI-H522 lung): > 100 µM
TGI (SK-MEL-5 melanoma): > 100 µM
TGI (DU-145 prostate): > 100 µM
TGI (MDA-MB-435): > 100 µM
TGI (HOP-62 NSCLC): > 100 µM
TGI (PC-3 prostate): > 100 µM
TGI (HCT-15 colon): > 100 µM
TGI (SK-MEL-28 melanoma): > 100 µM

NS(=O)(=O)OCCCCCCCOS(N)(=O)=O
TGI (786-0 renal): 571 µM
TGI (NCI-H23 lung): 795 µM
TGI (NCI-H522 lung): 916 µM
TGI (SK-MEL-5 melanoma): 649 µM
TGI (DU-145 prostate): 873 µM
TGI (MDA-MB-435): 921 µM
TGI (HOP-62 NSCLC): 676 µM
TGI (PC-3 prostate): 1240 µM
TGI (HCT-15 colon): 1190 µM
TGI (SK-MEL-28 melanoma): 1680 µM

NC(=O)NC1C(C(N)=O)N(Cc2ccccc2)C(=O)N1Cc1ccccc1 (stereo not drawn)
TGI (786-0 renal): > 100 µM
TGI (NCI-H23 lung): > 100 µM
TGI (NCI-H522 lung): > 100 µM
TGI (SK-MEL-5 melanoma): > 100 µM
TGI (HOP-62 NSCLC): > 100 µM
TGI (HCT-15 colon): > 100 µM
TGI (SK-MEL-28 melanoma): > 100 µM

Cn1cc(C2=C(c3cn(CCCCCSC(=N)N)c4ccccc34)C(=O)NC2=O)c2ccccc21
GI50 (786-0 renal): 3.16 µM
TGI (786-0 renal): 7 µM
GI50 (NCI-H23 lung): 3.5 µM
TGI (NCI-H23 lung): 7.56 µM
GI50 (NCI-H522 lung): 1.92 µM
TGI (NCI-H522 lung): 5.59 µM
GI50 (SK-MEL-5 melanoma): 3.28 µM
TGI (SK-MEL-5 melanoma): 6.67 µM
GI50 (DU-145 prostate): 3.58 µM
TGI (DU-145 prostate): 6.93 µM
GI50 (MDA-MB-435): 1.06 µM
TGI (MDA-MB-435): 4.07 µM
GI50 (HOP-62 NSCLC): 3.96 µM
TGI (HOP-62 NSCLC): 7.59 µM
GI50 (PC-3 prostate): 2.68 µM
TGI (PC-3 prostate): 6.02 µM
GI50 (HCT-15 colon): 3.8 µM
TGI (HCT-15 colon): 8.03 µM
GI50 (SK-MEL-28 melanoma): 3.55 µM
TGI (SK-MEL-28 melanoma): 7.17 µM

CCCCCCCCCCCC[n+]1ccc2ccccc2c1
GI50 (786-0 renal): 1.49 µM
TGI (786-0 renal): 2.93 µM
GI50 (NCI-H23 lung): 0.646 µM
TGI (NCI-H23 lung): 3.09 µM
GI50 (NCI-H522 lung): 0.41 µM
TGI (NCI-H522 lung): 1.88 µM
GI50 (SK-MEL-5 melanoma): 0.317 µM
TGI (SK-MEL-5 melanoma): 1.28 µM
GI50 (DU-145 prostate): 1.18 µM
TGI (DU-145 prostate): 2.74 µM
GI50 (MDA-MB-435): 0.387 µM
TGI (MDA-MB-435): 1.55 µM
GI50 (HOP-62 NSCLC): 1.48 µM
TGI (HOP-62 NSCLC): 3.01 µM
GI50 (PC-3 prostate): 0.219 µM
TGI (PC-3 prostate): 1.12 µM
GI50 (HCT-15 colon): 2.6 µM
TGI (HCT-15 colon): 13.8 µM
GI50 (SK-MEL-28 melanoma): 1.47 µM
TGI (SK-MEL-28 melanoma): 3 µM

O=C1NC(=NCCCc2ccccc2)S/C1=C\c1ccc2ncccc2c1
GI50 (786-0 renal): 5.47 µM
TGI (786-0 renal): 13 µM
GI50 (NCI-H23 lung): 6.06 µM
TGI (NCI-H23 lung): 15.8 µM
GI50 (NCI-H522 lung): 4.47 µM
TGI (NCI-H522 lung): 9.17 µM
GI50 (SK-MEL-5 melanoma): 4.63 µM
TGI (SK-MEL-5 melanoma): 9.8 µM
GI50 (DU-145 prostate): 5.89 µM
TGI (DU-145 prostate): 18 µM
GI50 (MDA-MB-435): 5.81 µM
TGI (MDA-MB-435): > 18 µM
GI50 (HOP-62 NSCLC): 5.79 µM
TGI (HOP-62 NSCLC): 13.8 µM
GI50 (PC-3 prostate): 5.62 µM
TGI (PC-3 prostate): 15.9 µM
GI50 (HCT-15 colon): 2.9 µM
TGI (HCT-15 colon): > 25 µM
GI50 (SK-MEL-28 melanoma): 6.51 µM
TGI (SK-MEL-28 melanoma): 21.1 µM

— PubChem BioAssay (NCI)
